Legend:
[1] = system: Escherichia coli strain BL21; experiment: MIC assay (broth microdilution) against E. coli BL21; format: cell-based; conditions: E. coli BL21, 24 h, 37° C.
Excerpt: (§1) FIGS. 2A-2E. Design, physicochemical features and activity of Pol-CP—NH2 and Ala-scan analogs. FIG. 2A. Theoretical physicochemical properties of interest of the wild type and Ala-scan analogs, where H denotes hydrophobicity, μH is the hydrophobic moment, q represents the net charge and P/N is the ratio of polar/non-polar residues in the sequence. Top to bottom, left to right the sequences correspond to SEQ ID NOs: 1-13. FIG. 2B. Schematic of the in vitro biological activity experimental design. Briefly, 10^4 bacterial cells and serially diluted peptides (0-128 μmol L^−1) were added to a 96-well plate and incubated at 37° C. One day after the exposure, the solution in each well was measured in a microplate reader (600 nm) to check inhibition of bacteria compared to the untreated controls and presented as heat maps of antimicrobial activities (μmol L^−1) against four bacteria strains: E. coli strain BL21, S. aureus strain ATCC12600 and P. aeruginosa strains PA01, and PA14. Assays were performed in triplicates. FIG. 2C. Graph correlating MIC (μmol L^−1) averages vs H and (FIG. 2D) MIC (μmol L^−1) averages vs μH, where dots […] the dashed line show peptides with higher activity compared to the wild type, in which one can observe ranges of optimal activity in determined intervals of H and μH values. FIG. 2E. […]

[2] = system: P. aeruginosa strain PA14; experiment: MIC assay (broth microdilution) against P. aeruginosa PA14; format: cell-based, Pseudomonas aeruginosa; conditions: P. aeruginosa PA14, 24 h, 37° C.
Excerpt: as §1

[3] = Stability assay in fetal bovine serum; format: in vitro ADME; conditions: fetal bovine serum, 6 h
Protocol: FIGS. 6A-6B. Hemolysis and resistance to protease-mediated degradation of engineered peptides. FIG. 6A. Schematic of experimental design and hemolytic assay results of Pol-CP—NH2 and derivatives, where hemolytic activity was evaluated by incubating the peptides (0.1-100 μmol L^−1) with human red blood cells in PBS at room temperature for 1 h. Experiments were performed in triplicate, (*p<0.05). FIG. 6B. Resistance to degradation of Pol-CP—NH2 and analogs exposed to fetal bovine serum (FBS) proteases for 6 h. Experiments were done in triplicate.
Stability Assays. The stability assay was performed with GIBCO fetal bovine serum diluted to 25% in water. 20 ? L of a 10 mg mL^−1 peptide solution was added to 1 mL 25% serum solution and kept at 37° C. The experiments were made in triplicate and 100 ? L aliquots were taken at 0, 0.5, 1, 2, 4 and 6 h. 10 ? L of TFA was added to the aliquots and the new solution was kept at 5° C. for 10 min, after that it was centrifuged at 14,000 rpm for 15 min, according to Powell et al. (Powell M. F. et al., Pharm. Res. 10, 1268-1273 (1993)). The reaction kinetics was followed by liquid chromatography and the percentage of remaining peptide was calculated by integrating the peptide peak area.

Substance | MIC [1] [µM] | MIC [2] [µM] | resistance to protease-mediated degradation [3]
H-ILGTILGLLKSL-NH2 [WT, ILGTILGLLKSL-NH2, reference compound] | 8.0 | 64.0 | 
H-ILGTILKLLKSL-NH2 [Peptide 16, ILGTILKLLKSL-NH2] |  |  | increased resistance to protease-mediated degradation

Source: patent publication US20210347823A1, “METHODS OF PHYSICOCHEMICAL-GUIDED PEPTIDE DESIGN AND NOVEL PEPTIDES DERIVED THEREFROM” (Massachusetts Institute of Technology, priority 2018, published 2021)
